Assays:
[1] = NOVARTIS: Cytotoxicity against human hepatocellular carcinoma cell line (Huh7); format: toxicity, cell-based, Huh-7; conditions: Huh7 cells (hepatocellular carcinoma cell line)
[2] = tested on: Plasmodium falciparum; experiment: NOVARTIS: Inhibition of Plasmodium falciparum W2 (drug-resistant) proliferation in erythrocyte-based infection assay; format: functional, organism-based; conditions: Plasmodium falciparum, W2; read-out: EC50
[3] = tested on: Plasmodium falciparum; experiment: NOVARTIS: Inhibition of Plasmodium falciparum 3D7 (drug-susceptible) proliferation in erythrocyte-based infection assay; format: functional, organism-based; conditions: Plasmodium falciparum, 3D7

SMILES | CC50 [1] | EC50 [2] | EC50 [3]
CCN(CC)CCCNc1nc2cc(OC)c(OC)cc2c2nc(-c3ccccc3)nn12 | > 100 µM | 1170 nM | 3250 nM
COc1cc(C(c2c(C)n(C)n(-c3ccccc3)c2=O)c2c(C)n(C)n(-c3ccccc3)c2=O)cc(Cl)c1OCc1ccccc1 | 38.3 µM | 456 nM | 2700 nM
CCOc1ccc(Nc2cc(C)nc3c(C)cc(C)cc23)cc1 | 19.2 µM | 225 nM | 484 nM
CCCCCn1c(C)[n+](CCCC)c2cc(Cl)c(Cl)cc21 | > 100 µM | 1160 nM | 1240 nM
COc1ccc(CN(Cc2cc3cccc(C)c3nc2N2CCCC(O)C2)C(=O)c2ccc(OC)c(OC)c2)cc1 (configuration not stated) | > 100 µM | 1220 nM | 1420 nM
COc1ccc(CN(Cc2ccc(C(C)C)cc2)S(=O)(=O)c2ccc(S(=O)(=O)N3CCN(c4ccccc4F)CC3)cc2)cc1 | > 100 µM | 1210 nM | > 12500 nM
CCC(=O)N1CCc2cc(Br)cc(S(=O)(=O)N3CC(C)CC(C)C3)c21 (configuration not stated) | > 100 µM | 1160 nM | 1970 nM
CC1(C)N=C(N)N=C(N)N1c1ccccc1 | > 83.7 µM | 988 nM | 174 nM
Cc1cccc(OCC(=O)Nc2cccc(NC(=O)COc3cccc(C)c3)n2)c1 | > 100 µM | 1160 nM | 237 nM
FC(F)(F)c1cnc(Sc2nnc(-c3ccncc3)o2)c(Cl)c1 | 83.9 µM | 976 nM | 1870 nM
Brc1ccc(C=NNc2nc3ccccc3[nH]2)cc1 | 55.8 µM | 674 nM | 226 nM
CC(C)CN1C(=O)c2ccccc2C(C(=O)Nc2ccc(C(C)C)cc2)C1c1cccs1 (configuration not stated) | > 100 µM | 1200 nM | 2410 nM
CC[n+]1c(/C=C/c2ccc(C)cc2)ccc2ccccc21 | > 10 µM | 119 nM | 97.4 nM
CC(=O)N(C1=C(N(C)C)C(=O)c2ccccc2C1=O)c1ccc(F)cc1 | 2.68 µM | 32 nM | 24.4 nM
COc1ccc(OC)c(CN2CCC3(CC2)CC3C(=O)NCCc2ccccc2OC)c1 (configuration not stated) | > 100 µM | 1190 nM | > 3170 nM
Cc1ccc(CNC(=O)C2CNCC2c2ccc(C(F)(F)F)cc2)cc1 (configuration not stated) | > 10 µM | 121 nM | 243 nM
c1ccc(CN2CCC(NCc3c[nH]c4ccccc34)CC2)cc1 | > 10 µM | 120 nM | 208 nM
CC(C)C(=O)NC(Nc1cccc([N+](=O)[O-])c1)C(Cl)(Cl)Cl (configuration not stated) | > 100 µM | 1200 nM | 1560 nM
O=C(CN1CCCC1)N1N=C(c2cccs2)CC1c1ccc(F)cc1 (configuration not stated) | > 100 µM | 1200 nM | > 12500 nM
C=CCn1cc(C=NNc2nc3ccccc3[nH]2)c2ccccc21 | 18.4 µM | 220 nM | 91.3 nM
Cn1cnnc1SCC(=O)Nc1ccccc1C(F)(F)F | > 100 µM | 1190 nM | > 12500 nM
COc1cc(C=C(C#N)c2nc3ccccc3[nH]2)ccc1OCc1ccccc1Cl | > 100 µM | 1190 nM | 757 nM
CCN1CCN(c2c(Cl)cccc2NC(=O)C(Cl)(Cl)Cl)CC1 | > 100 µM | 1180 nM | 1670 nM
CN1C=C(c2ccc3ccccc3n2)C(c2c[nH]c3ccccc23)c2ccccc21 (configuration not stated) | > 100 µM | 1210 nM | 1140 nM
COc1cc2nc(NCCCOC(C)C)n3nc(-c4ccccc4)nc3c2cc1OC | > 100 µM | 1210 nM | 793 nM
CC1CCN(CCCNc2ccc(C(=O)Nc3ccc(C(F)(F)F)cc3)cc2[N+](=O)[O-])CC1 | 23.4 µM | 278 nM | 199 nM
Cc1cc(N2CCCC2)nc2ccc(NC(=S)NCCCN3CCN(Cc4ccccc4)CC3)cc12 | 55.5 µM | 658 nM | 116 nM

SMILES | CC50 [1] | EC50 [2] | EC50 [3]
CC(C)C(=O)N(C)CCCNc1ccnc2cc(Cl)ccc12 | > 10 µM | 118 nM | 131 nM
O=C(Nc1cccc(N2CCC(NCC3CCCCC3)CC2)c1)C1CC1 | > 100 µM | 1180 nM | 3680 nM
Cc1ccc(-c2c[n+](CC(=O)c3ccccc3Cl)c3n2CCC3)cc1 | > 95.9 µM | 1110 nM | 1010 nM
Oc1ccc(-c2ccc3c(c2)OCO3)cc1CNC1CCN(Cc2ccccc2)CC1 | 29.9 µM | 364 nM | 598 nM
COc1ccc2c(C)nc(Nc3nc(C)cc(-c4ccccc4)n3)nc2c1 | > 100 µM | 1160 nM | 341 nM
CC(=NNC(=O)/C(=C/c1ccc([N+](=O)[O-])cc1)NC(=O)c1ccccc1)c1ccccn1 | > 10 µM | 117 nM | 1050 nM
Cn1cc(C(c2cccs2)c2cn(C)c3ccccc23)c2ccccc21 | 52.3 µM | 610 nM | 1370 nM
CC(=O)N(C1=C(N2CCCCC2)C(=O)c2ccccc2C1=O)c1cccc(Cl)c1 | 32 µM | 375 nM | 239 nM
Cc1ccn2c(NC(C)(C)CC(C)(C)C)c(-c3ccccc3OC(=O)c3ccccc3Br)nc2c1 | > 10 µM | 117 nM | 760 nM
CCCCCCc1ccc(C(=O)Oc2ccccc2-c2nc3cc(C)ccn3c2NC(C)(C)CC(C)(C)C)cc1 | > 13.8 µM | 162 nM | 813 nM
Cc1ccc(-c2c3c4n(c(-c5ccc(Cl)cc5)cn4c2C(=O)Nc2ccccc2Cl)CCCC3)cc1 | > 100 µM | 1160 nM | 269 nM
Cc1ccc2nc(C)cc(NCCN(C)C)c2c1 | 59.1 µM | 709 nM | 360 nM
Cc1cc2c(Nc3cccc(Cl)c3C)ncnc2s1 | > 100 µM | 1190 nM | 1910 nM
N#CC(=Cn1cc(Cc2ccc(Cl)cc2Cl)c2ccccc21)c1nn(CCO)c(N)c1C#N | 75 µM | 909 nM | 629 nM
COc1cc(CN2CC3CC(C2)c2cccc(=O)n2C3)ccc1O (configuration not stated) | > 100 µM | 1210 nM | > 12500 nM
C(=NNc1nc2ccccc2[nH]1)c1ccccc1 | > 100 µM | 1190 nM | 587 nM
COc1ccc(OC)c(-c2ccc(O)c(CNCC3CCCCC3)c2)c1 | > 10 µM | 120 nM | 350 nM
CCC(c1nc2ccccc2c(=O)n1-c1ccccc1OC)N(CCc1ccccc1)C(=O)c1cccc(C(F)(F)F)c1 (configuration not stated) | > 10 µM | 118 nM | 919 nM
N#Cc1c2c(c(N3CCN(c4ccccn4)CC3)n3c1nc1ccccc13)CCC2 | > 100 µM | 1180 nM | 2360 nM
CCN(CC)S(=O)(=O)c1ccc(-c2csc(Nc3ccc(C)c(C)c3)n2)cc1 | > 100 µM | > 1170 nM | > 2100 nM
CCC(Sc1nc2ccccc2n1C(C)=O)C(=O)NC1=NN=C(c2ccc(Br)cc2)CS1 (configuration not stated) | 46.7 µM | 543 nM | 549 nM
c1ccc(-c2nc3cc4nc(-c5ccccc5)[nH]c4cc3[nH]2)cc1 | > 100 µM | 1200 nM | 285 nM
CN(CCCNc1ccnc2cc(Cl)ccc12)C(=O)c1ccc(C(C)(C)C)cc1 | 3.89 µM | 46.5 nM | 81.2 nM
O=C1c2ccccc2C2=Nc3ccccc3SC(c3ccccc3F)C12 (configuration not stated) | 22.9 µM | 278 nM | 209 nM
O=C(NC1CCN(CC(O)CN(Cc2ccccc2)S(=O)(=O)c2ccccc2)C1)C1CCCCC1 (configuration not stated) | > 10 µM | 116 nM | 185 nM
CC(C)NC(=O)c1ccc2c(c1)N=C(c1ccccc1)N(C1CC1)C2 | > 10 µM | 117 nM | > 1680 nM
COc1ccc(OC)c(-c2ccc(O)c(CNCc3ccccc3OC)c2)c1 | > 10 µM | 117 nM | > 1520 nM

Reference: ChEMBL document CHEMBL1156829 (Proc Natl Acad Sci U S A, 2008)
